#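 Tested at 5 concentrations; 48 h exposure; 96-well plates; endpoints linearly interpolated, else capped at highest concentration. Here, GI50 denotes the concentration required for 50% inhibition of growth.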 Active and inactive are the calls of the source. Cut-off read from the data, not from the text of the source: active = GI50 up to about 1.1 µM and inactive = higher.
# Columns and labels:
# Test in all cases: growth of human tumour cells (NCI), 48 h
# OVCAR-4 = test system: OVCAR-4
# NCI-H23 = test system: NCI-H23
# DMS-114 = test system: DMS-114
# LOX IMVI = test system: LOX IMVI
# OVCAR-5 = test system: OVCAR-5
# MOLT-4 = test system: MOLT-4
# SN12C = test system: SN12C
# NCI-H226 = test system: NCI-H226
# UACC-62 = test system: UACC-62
# COLO 205 = test system: COLO 205
# EKVX = test system: EKVX
# NCI-H460 = test system: NCI-H460
# CAKI-1 = test system: CAKI-1
# OVCAR-8 = test system: OVCAR-8
# K562 = test system: K562
# UO-31 = test system: UO-31
# SNB-75 = test system: SNB-75
# ACHN = test system: ACHN
# M14 = test system: M14
# DU-145 = test system: DU-145
Structure (SMILES),GI50 (OVCAR-4),GI50 (NCI-H23),GI50 (DMS-114),GI50 (LOX IMVI),GI50 (OVCAR-5),GI50 (MOLT-4),GI50 (SN12C),GI50 (NCI-H226),GI50 (UACC-62),GI50 (COLO 205),GI50 (EKVX),GI50 (NCI-H460),GI50 (CAKI-1),GI50 (OVCAR-8),GI50 (K562),GI50 (UO-31),GI50 (SNB-75),GI50 (ACHN),GI50 (M14),GI50 (DU-145)
Cc1c2cc[n+](C)cc2c(COC2OC(CO)C(O)C2O)c2c3ccccc3n(C)c12 (stereo not drawn),> 100 µM (inactive),58.3 µM (inactive),46.3 µM (inactive),> 100 µM (inactive),> 100 µM (inactive),45.5 µM (inactive),6.85 µM (inactive),28.6 µM (inactive),> 96.8 µM (inactive),> 100 µM (inactive),> 95.5 µM (inactive),19.2 µM (inactive),> 100 µM (inactive),99.1 µM (inactive),> 100 µM (inactive),> 100 µM (inactive),25 µM (inactive),,,
C=CNC(=S)n1nc(-c2ccccc2NC(=O)C(F)(F)F)c(=O)n(C(=S)NC=C)c1=S,3.58 µM (inactive),26.7 µM (inactive),12.3 µM (inactive),31.8 µM (inactive),26.7 µM (inactive),15.4 µM (inactive),48.9 µM (inactive),21.2 µM (inactive),45.8 µM (inactive),> 10 µM (inactive),22.3 µM (inactive),15.1 µM (inactive),23.1 µM (inactive),33 µM (inactive),18.1 µM (inactive),13.9 µM (inactive),26 µM (inactive),24.4 µM (inactive),34.6 µM (inactive),
Cc1c(-c2cc3n(n2)C(c2cccs2)C(C#N)=C(c2ccccc2)N3)c(=O)n(-c2ccccc2)n1C (stereo not drawn),> 87.9 µM (inactive),> 89.5 µM (inactive),77.3 µM (inactive),38.5 µM (inactive),> 100 µM (inactive),> 72.6 µM (inactive),> 80.2 µM (inactive),> 100 µM (inactive),> 100 µM (inactive),> 89.3 µM (inactive),> 100 µM (inactive),76.9 µM (inactive),11.1 µM (inactive),> 100 µM (inactive),> 100 µM (inactive),77.4 µM (inactive),> 55.1 µM (inactive),,,
CNC(=O)OCc1nc(SC)n(C)c1CO,> 100 µM (inactive),> 100 µM (inactive),> 100 µM (inactive),> 100 µM (inactive),> 100 µM (inactive),> 100 µM (inactive),> 100 µM (inactive),> 100 µM (inactive),> 100 µM (inactive),> 100 µM (inactive),> 100 µM (inactive),> 100 µM (inactive),> 100 µM (inactive),> 100 µM (inactive),> 100 µM (inactive),> 100 µM (inactive),> 100 µM (inactive),,,
O=C1CC2(CCC(O)(c3ccccc3)C(C(=O)c3ccccc3)C2)C(=O)c2ccccc2N1 (stereo not drawn),38.2 µM (inactive),> 100 µM (inactive),,> 100 µM (inactive),> 100 µM (inactive),> 100 µM (inactive),> 100 µM (inactive),> 100 µM (inactive),> 100 µM (inactive),> 100 µM (inactive),> 100 µM (inactive),> 100 µM (inactive),> 100 µM (inactive),> 100 µM (inactive),> 100 µM (inactive),> 100 µM (inactive),> 100 µM (inactive),,> 100 µM (inactive),> 100 µM (inactive)
CNc1cc2c(c3ccccc13)C(CCl)CN2C(=O)c1cc2cc(OC)c(OC)c(OC)c2[nH]1 (stereo not drawn),< 0.01 µM (active),0.000465 µM (active),,0.00106 µM (active),0.0052 µM (active),0.00053 µM (active),0.000881 µM (active),0.0138 µM (active),0.000588 µM (active),0.00227 µM (active),0.00381 µM (active),0.000212 µM (active),0.000703 µM (active),0.00123 µM (active),0.00188 µM (active),0.00223 µM (active),0.00252 µM (active),0.000124 µM (active),0.00235 µM (active),0.000442 µM (active)
c1ccc2c(c1)c1ccccc1n2Cn1c2ccccc2c2ccccc21,> 100 µM (inactive),> 100 µM (inactive),,> 100 µM (inactive),> 100 µM (inactive),> 100 µM (inactive),> 100 µM (inactive),> 100 µM (inactive),> 100 µM (inactive),,> 100 µM (inactive),> 100 µM (inactive),> 100 µM (inactive),> 100 µM (inactive),> 100 µM (inactive),> 100 µM (inactive),30.8 µM (inactive),> 100 µM (inactive),> 100 µM (inactive),> 100 µM (inactive)
C/C(=N\NC(=O)c1ccncc1)c1cccc(C(F)(F)F)c1,> 10 µM (inactive),> 10 µM (inactive),,> 10 µM (inactive),,> 10 µM (inactive),> 10 µM (inactive),> 10 µM (inactive),> 10 µM (inactive),> 10 µM (inactive),> 10 µM (inactive),> 10 µM (inactive),> 10 µM (inactive),> 10 µM (inactive),> 10 µM (inactive),> 10 µM (inactive),> 10 µM (inactive),,> 10 µM (inactive),> 10 µM (inactive)
COc1ccc(C2c3cc4c(cc3OC(Nc3ccccc3)C2C)OCO4)cc1 (stereo not drawn),,64 µM (inactive),,27.7 µM (inactive),> 100 µM (inactive),11.2 µM (inactive),61.1 µM (inactive),41.1 µM (inactive),52.8 µM (inactive),36.1 µM (inactive),8.59 µM (inactive),7.98 µM (inactive),25.4 µM (inactive),,15.2 µM (inactive),29.5 µM (inactive),44.1 µM (inactive),21.8 µM (inactive),85.9 µM (inactive),57.9 µM (inactive)
CCOC(=O)/C=C(\C)c1ccc(C)cc1C,> 100 µM (inactive),45.4 µM (inactive),> 100 µM (inactive),16.3 µM (inactive),> 100 µM (inactive),> 100 µM (inactive),39.8 µM (inactive),> 100 µM (inactive),,> 100 µM (inactive),> 100 µM (inactive),> 100 µM (inactive),> 100 µM (inactive),> 100 µM (inactive),45.1 µM (inactive),> 100 µM (inactive),75.3 µM (inactive),> 100 µM (inactive),> 100 µM (inactive),
CCc1cc2c(oc3cc4ccccc4cc32)c(=O)[nH]1,> 10 µM (inactive),,,> 10 µM (inactive),> 10 µM (inactive),,> 10 µM (inactive),> 10 µM (inactive),,,> 10 µM (inactive),> 10 µM (inactive),,> 10 µM (inactive),,> 10 µM (inactive),> 10 µM (inactive),> 10 µM (inactive),> 10 µM (inactive),> 10 µM (inactive)
N=C(N)c1csc([C@@H]2O[C@H](CO)[C@@H](O)[C@H]2O)n1,> 100 µM (inactive),> 100 µM (inactive),,> 100 µM (inactive),,> 100 µM (inactive),> 100 µM (inactive),89.5 µM (inactive),,,> 100 µM (inactive),> 100 µM (inactive),> 100 µM (inactive),> 100 µM (inactive),> 100 µM (inactive),> 100 µM (inactive),80.9 µM (inactive),> 100 µM (inactive),> 100 µM (inactive),
CCOC(=O)NC(=O)c1cn(C2CCCCC2)c(=O)n(C)c1=O,> 100 µM (inactive),> 100 µM (inactive),> 100 µM (inactive),> 100 µM (inactive),> 100 µM (inactive),> 100 µM (inactive),> 100 µM (inactive),> 100 µM (inactive),> 100 µM (inactive),> 100 µM (inactive),,> 100 µM (inactive),> 100 µM (inactive),> 100 µM (inactive),> 100 µM (inactive),> 100 µM (inactive),> 100 µM (inactive),> 100 µM (inactive),> 100 µM (inactive),
